Results reported in US10183944B2 (Asana Biosciences, LLC, priority 2011, dated 2019).
Counter-ions that a name gives are not always drawn.

Molecular target: Syk (356-635 amino acids) catalytic domain (Homo sapiens (Human), UniProt P43405)
Assay: Inhibition of enzymatic Syk kinase activity (radiometric)
Format: biochemical
Conditions: read-out: IC50 Syk
Excerpt: The objective of this assay was to examine by radiometric method the ability of compounds to inhibit Syk kinase enzyme. Syk is capable of phosphorylating substrates such as VAV, LAT, SLP-76, which in turn activate MAPK, PLCγ signaling pathways. […] This in vitro assay tests the ability of syk to phosphorylate a substrate peptide in the presence of ATP. By using a radio-labeled form of ATP, it is possible to measure the amount of phosphorylation of the substrate. The enzyme transfers a radio-labeled phosphate group from γ32 P labeled ATP to pG4T. Briefly the enzyme was incubated with substrate, radio-labeled & cold ATP and substrate in buffer with or without compounds. At the end of the reaction, the reaction mixture was transferred on to a Multiscreen filter plate and unreacted γ^32P ATP was washed off. The filter plate was dried and the radioactivity was measured on a scintillation counter to estimate the incorporated radioactivity on the substrate. The percent inhibition of activity of the enzyme was calculated by comparing counts in the presence and absence of compounds. […] 2.5 μL of 10% DMSO or compound in 10% DMSO was added to the wells in a 96 well V-bottom plate. Optimized concentration of in-house Syk enzyme (different batches of Syk (356-635) kinase domain) were used at optimized concentrations) ranging from 0.035 ng to 7.5 ng/reaction diluted in assay buffer was added to a total volume of 12.5 μL). Compound and protein were incubated for 30 minutes at room temperature on a plate shaker. Ten μL of a substrate mix containing 100 μM ATP (0.25 μL), γ-P^32-ATP (0.1 μL; 10 μCi/μL), pG4T (0.25 μL; 10 mg/mL) and 1× assay buffer (9.4 μL) was added to all the wells. Samples were incubated at 30° C. for 10 minutes after mixing. The reaction was stopped by the addition of 8N HCl (13 μL) containing 100 mM ATP. Thirty μL of sample was transferred to the center of a 2×2 cm^2 Whatman® P81 chromatography paper. After allowing the sample to dry for one minute, the assay squares were washed 3 times for 5 minutes each in ortho-phosphoric acid (0.5%) and once in acetone. Assay squares were dried for 15 minutes in a 30° C. oven and transferred to 96 well optiplate. Microscint-O® reagent (100 μL, Perkin Elmer) was added to each well, the plate was sealed with Topseal®-A microplates and incubated for 10 minutes at room temperature at very low speed on rocker and the plate was read in the Topcount® NXL instrument. The following calculations were made: Fold induction=radioactivity counts (uncorrected values) in positive control/substrate control.

SMILES | IC50 [nM]
N#CCC1CCN(c2ccc(Nc3nc(-c4ccccc4)nc4cn[nH]c(=O)c34)cc2)CC1 [Example 82, 2-(1-(4-((5-oxo-2-phenyl-5,6-dihydropyrimido[4,5-d]pyridazin-4-yl)amino)phenyl)piperidin-4-yl)acetonitrile] | > 100
CC1CN(c2nc(Nc3ccc(OCCN4CCNCC4)cc3)c3c(=O)[nH]ncc3n2)CC(C)O1 (stereo not shown) [Example 177, 2-(2,6-dimethylmorpholino)-4-((4-(2-(piperazin-1-yl)ethoxy)phenyl)amino) pyrimido[4,5-d]pyridazin-5(6H)-one] | > 100
N#CCC1CCN(c2nc(Nc3ccc(OC(F)(F)F)cc3)c3c(=O)[nH]ncc3n2)CC1 [Example 301, 2-(1-(5-oxo-4-((4-(trifluoromethoxy)phenyl)amino)-5,6-dihydropyrimido[4,5-d]pyridazin-2-yl)piperidin-4-yl) acetonitrile] | > 100
O=c1[nH]ncc2nc(N3CCCCCC3)nc(Nc3ccc(N4CCC5(CC4)CC5CO)cc3)c12 (stereo not shown) [Example 258, 2-(azepan-1-yl)-4-((4-(1-(hydroxymethyl)-6-azaspiro[2.5]octan-6-yl)phenyl)amino) pyrimido[4,5-d]pyridazin-5(6H)-one] | < 100
CCOC(=O)C1CC12CCN(c1ccc(Nc3nc(-c4ccccc4)nc4cn[nH]c(=O)c34)cc1)CC2 (stereo not shown) [Example 20, ethyl 6-(4-(5-oxo-2-phenyl-5,6-dihydropyrimido[4,5-d]pyridazin-4-ylamino)phenyl)-6-azaspiro[2.5]octane-1-carboxylate] | > 100
O=c1[nH]ncc2nc(-c3ccccc3)nc(Nc3cnn(CCN4CCNCC4)c3)c12 [Example 63, 2-phenyl-4-((1-(2-(piperazin-1-yl)ethyl)-1H-pyrazol-4-yl)amino)pyrimido[4,5-d]pyridazin-5(6H)-one hydrochloride] | > 100
O=c1[nH]ncc2nc(N3CCCCCC3)nc(Nc3ccc(F)cc3)c12 [Example 313, 2-(azepan-1-yl)-4-((4-fluorophenyl)amino)pyrimido[4,5-d]pyridazin-5(6H)-one] | > 100
CN1CCN(CCn2cc(Nc3nc(-c4ccccc4)nc4cn[nH]c(=O)c34)cn2)CC1 [Example 64, 4-((1-(2-(4-methylpiperazin-1-yl)ethyl)-1H-pyrazol-4-yl)amino)-2-phenylpyrimido[4,5-d]pyridazin-5(6H)-one] | > 100
O=c1[nH]ncc2nc(N3CCCCCC3)nc(Nc3ccc(OCCCO)cc3)c12 [Example 296, 2-(azepan-1-yl)-4-((4-(3-hydroxypropoxy)phenyl)amino)pyrimido[4,5-d]pyridazin-5(6H)-one] | < 100
COc1cc(Nc2nc(N3CCCCCC3)nc3cn[nH]c(=O)c23)cc(OC)c1OC [Example 67, 2-(azepan-1-yl)-4-((3,4,5-trimethoxyphenyl)amino)pyrimido[4,5-d]pyridazin-5(6H)-one] | > 100
N#CCC1CCN(c2nc(Nc3ccc(CO)cc3)c3c(=O)[nH]ncc3n2)CC1 [Example 332, 2-(1-(4-((4-(hydroxymethyl)phenyl)amino)-5-oxo-5,6-dihydropyrimido[4,5-d]pyridazin-2-yl)piperidin-4-yl) acetonitrile] | < 100
O=C1CC2(CCN(c3ccc(Nc4nc(-c5ccccc5)nc5cn[nH]c(=O)c45)cc3)CC2)N1 [Example 16, 4-(4-(2-oxo-1,7-diazaspiro[3.5]nonan-7-yl)phenylamino)-2-phenylpyrimido[4,5-d]pyridazin-5(6H)-one] | > 100
CC(C)(Oc1ccc(Nc2nc(N3CCC(CC#N)CC3)nc3cn[nH]c(=O)c23)cc1)C(=O)O [Example 317, 2-(4-((2-(4-(cyanomethyl)piperidin-1-yl)-5-oxo-5,6-dihydropyrimido[4,5-d]pyridazin-4-yl)amino)phenoxy)-2-methylpropanoic acid] | > 100
N#CCC1CCN(c2ccc(Nc3nc(N4CCCCCC4)nc4cn[nH]c(=O)c34)cn2)CC1 [Example 97, 2-(1-(5-((2-(azepan-1-yl)-5-oxo-5,6-dihydropyrimido[4,5-d]pyridazin-4-yl)amino)pyridin-2-yl)piperidin-4-yl) acetonitrile] | > 100
O=c1[nH]ncc2nc(-c3ccccc3)nc(Nc3ccc(OC[C@@H]4CO[C@@H](CO)CO4)cc3)c12 [Example 122, 4-((4-(((2S,5S)-5-(hydroxymethyl)-1,4-dioxan-2-yl)methoxy)phenyl)amino)-2-phenylpyrimido[4,5-d]pyridazin-5(6H)-one] | > 100
O=C(c1ccc(Nc2nc(-c3ccccc3)nc3cn[nH]c(=O)c23)cc1)N1CCOCC1 [Example 9, 4-(4-(morpholine-4-carbonyl)phenylamino)-2-phenylpyrimido[4,5-d]pyridazin-5(6H)-one] | > 100
O=C(O)C1CC12CCN(Cc1ccc(Nc3nc(-c4ccccc4)nc4cn[nH]c(=O)c34)cc1)CC2 (stereo not shown) [Example 21, 6-(4-(5-oxo-2-phenyl-5,6-dihydropyrimido[4,5-d]pyridazin-4-ylamino)benzyl)-6-azaspiro[2.5]octane-1-carboxylic acid] | > 100
O=c1[nH]ncc2nc(-c3ccccc3)nc(Nc3cnn(CCN4CCOCC4)c3)c12 [Example 58, 4-((1-(2-morpholinoethyl)-1H-pyrazol-4-yl)amino)-2-phenylpyrimido[4,5-d]pyridazin-5(6H)-one] | > 100
N#CC1CCN(c2nc(Nc3ccc(CN4CCC(C(=O)O)CC4)cc3)c3c(=O)[nH]ncc3n2)CC1 [Example 76, 1-(4-((2-(4-cyanopiperidin-1-yl)-5-oxo-5,6-dihydropyrimido[4,5-d]pyrimido[4,5-d]pyridazin-4-yl)amino)benzyl)piperidine-4-carboxylic acid] | > 100
NCC(=O)N1CCN(c2ccc(Nc3nc(-c4ccccc4)nc4cn[nH]c(=O)c34)cc2)CC1 [Example 14, 4-(4-(4-(2-aminoacetyl)piperazin-1-yl)phenylamino)-2-phenylpyrimido[4,5-d]pyridazin-5(6H)-one] | < 10
N#CCC1CCN(c2nc(Nc3cccc(CO)c3)c3c(=O)[nH]ncc3n2)CC1 [Example 311, 2-(1-(4-((3-(hydroxymethyl)phenyl)amino)-5-oxo-5,6-dihydropyrimido[4,5-d]pyridazin-2-yl)piperidin-4-yl) acetonitrile] | > 100
COc1cc(Nc2nc(N3CCC(CC#N)CC3)nc3cn[nH]c(=O)c23)cc(OC)c1OC [Example 326, 2-(1-(5-oxo-4-((3,4,5-trimethoxyphenyl)amino)-5,6-dihydropyrimido[4,5-d]pyridazin-2-yl)piperidin-4-yl) acetonitrile] | > 100
O=C(O)C1CC12CCN(c1ccc(Nc3nc(-c4ccncc4)nc4cn[nH]c(=O)c34)cc1)CC2 (stereo not shown) [Example 138, 6-(4-((5-oxo-2-(pyridin-4-yl)-5,6-dihydropyrimido[4,5-d]pyridazin-4-yl)amino)phenyl)-6-azaspiro[2.5]octane-1-carboxylic acid] | > 100
CN(C)CCN(C)C(=O)c1ccc(Nc2nc(-c3ccccc3)nc3cn[nH]c(=O)c23)cc1 [Example 15, N-(2-(dimethylamino)ethyl)-N-methyl-4-(5-oxo-2-phenyl-5,6-dihydropyrimido[4,5-d]pyridazin-4-ylamino)benzamide] | > 100
N#CC1CCN(c2nc(Nc3ccc(N4CCC5(CC4)CC5C(=O)O)cc3)c3c(=O)[nH]ncc3n2)CC1 (stereo not shown) [Example 74, 6-(4-((2-(4-cyanopiperidin-1-yl)-5-oxo-5,6-dihydropyrimido[4,5-d]pyridazin-4-yl)amino)phenyl)-6-azaspiro[2.5]octane-1-carboxylic acid] | > 100
O=c1[nH]ncc2nc(N3CCCCCC3)nc(Nc3ccc(N4CCC(CCCO)CC4)cc3)c12 [Example 194, 2-(azepan-1-yl)-4-((4-(4-(3-hydroxypropyl)piperidin-1-yl)phenyl)amino)pyrimido[4,5-d]pyridazin-5(6H)-one] | > 100
N#CCN1CCN(c2nc(Nc3ccc(N4CCC5(CC4)CC5C(=O)O)cc3)c3c(=O)[nH]ncc3n2)CC1 (stereo not shown) [Example 73, 6-(4-((2-(4-(cyanomethyl)piperazin-1-yl)-5-oxo-5,6-dihydropyrimido[4,5-d]pyridazin-4-yl)amino)phenyl)-6-azaspiro[2.5]octane-1-carboxylic acid] | < 100
N#CC1CCN(c2nc(Nc3ccc(N4CCC(CC(=O)O)CC4)cc3)c3c(=O)[nH]ncc3n2)CC1 [Example 75, 2-(1-(4-((2-(4-cyanopiperidin-1-yl)-5-oxo-5,6-dihydropyrimido[4,5-d]pyridazin-4-yl)amino)phenyl)piperidin-4-yl)acetic acid] | < 100
